Data from patent US10202658B2, “Methods for determining hypersusceptibility of HIV-1 to non-nucleoside reverse transcriptase inhibitors” (Monogram Biosciences, Inc., priority 2005, dated 2019).

Key:
Type in all cases: cell-based
[1] = test system: HIV-1, RT mutations: T215Y and 2 TAMs and H208X; test: PhenoSense resistance test vector assay, clinical isolates with T215Y and 2 TAMs and H208X; details: share of samples designated hypersusceptible
Description: (§1) In preferred embodiments, the phenotypic analysis of NNRTI hypersusceptibility is performed using PHENOSENSE™ (ViroLogic Inc., South San Francisco, Calif.). See Petropoulos et al., 2000, Antimicrob. Agents Chemother. 44:920-928; U.S. Pat. Nos. 5,837,464 and 6,242,187. PHENOSENSE™ is a phenotypic assay that achieves the benefits of phenotypic testing and overcomes the drawbacks of previous assays. Because the assay has been automated, PHENOSENSE™ provides high throughput methods under controlled conditions for determining NNRTI resistance, susceptibility, or hypersusceptibility of a large number of individual viral isolates.
(§2) The assay can be performed by first co-transfecting host cells with RTV DNA and a plasmid that expresses the envelope proteins of another retrovirus, for example, amphotropic murine leukemia virus (MLV). Following transfection, viral particles can be harvested from the cell culture and used to infect fresh target cells in the presence of varying amounts of anti-viral drug(s). The completion of a single round of viral replication in the fresh target cells can be detected by the means for detecting replication contained in the vector. In a preferred embodiment, the completion of a single round of viral replication results in the production of luciferase. By monitoring the amount of, e.g., luciferase activity in the presence of the varying amounts of antiviral drug(s), a resistance curve can be constructed by plotting luciferase activity versus drug concentration. The susceptibility of an HIV, or population of HIV, can be determined by measuring the concentration of antiviral drug at which the luciferase activity detected is half-maximal. This number, the IC50, provides a standard and convenient measure of drug resistance.
(§3) Patient-derived segment(s) corresponding to the HIV protease and reverse transcriptase coding regions were amplified by the reverse transcription-polymerase chain reaction method (RT-PCR) using viral RNA isolated from viral particles present in the plasma or serum of HIV-infected individuals as follows. […]

[2] = test system: HIV-1, RT mutations: T215Y and 2 TAMs and V118 wt; test: PhenoSense resistance test vector assay, clinical isolates with T215Y and 2 TAMs and V118 wt; details: share of samples designated hypersusceptible
Description: as §1, §2, §3

[3] = test system: HIV-1, RT mutations: 3 NAMs; test: PhenoSense resistance test vector assay, clinical isolates with 3 NAMs; details: share of samples designated hypersusceptible
Description: as §1, §2, §3

[4] = test system: HIV-1, RT mutations: T215Y and 2 TAMs and V118I; test: PhenoSense resistance test vector assay, clinical isolates with T215Y and 2 TAMs and V118I; details: share of samples designated hypersusceptible
Description: as §1, §2, §3

[5] = test system: HIV-1, RT mutations: None; test: PhenoSense resistance test vector assay, clinical isolates without NRTI, NNRTI or PI mutations (WT reference group); details: share of samples designated hypersusceptible
Description: as §1, §2, §3

[6] = test system: HIV-1, RT mutations: T215Y and 2 TAMs and H208 wt; test: PhenoSense resistance test vector assay, clinical isolates with T215Y and 2 TAMs and H208 wt; details: share of samples designated hypersusceptible
Description: as §1, §2, §3

[7] = test system: HIV-1, RT mutations: 184V; test: PhenoSense resistance test vector assay, clinical isolates with 184V; details: share of samples designated hypersusceptible
Description: as §1, §2, §3

[8] = test system: HIV-1 NL4-3 SDM, M184V in reverse transcriptase; test: NNRTI susceptibility of site-directed mutant (SDM) bearing only M184V in NL4-3 background; details: mean+/-SD of 17 replicates, p<0.00001 versus reference
Description: as §1
as §2, with “By monitoring the amount of, e.g., luciferase activity in the presence of the varying amounts of antiviral drug(s), a resistance curve can be constructed by plotting luciferase activity versus drug concentration.” left out, “This number, the IC50, provides a standard and convenient measure of drug resistance.” left out
Resistance tests were carried out with resistance test vectors using two host cell types. […] The resistance test vector viral particles were then used to infect a second host cell (the target host cell) in which the expression of the indicator gene is measured.
The amount of luciferase activity detected in infected cells is used as a direct measure of “infectivity,” i.e., the ability of the virus to complete a single round of replication. Thus, drug resistance or sensitivity can be determined by plotting the amount of luciferase activity produced by patient derived viruses in the presence of varying concentrations of the antiviral drug. […]

[9] = test system: HIV-1, RT mutations: 2 NAMs; test: PhenoSense resistance test vector assay, clinical isolates with 2 NAMs; details: share of samples designated hypersusceptible
Description: as §1, §2, §3

SMILES	% IC50 0.4 fold < WT [1] [%]	% IC50 0.4 fold < WT [2] [%]	% IC50 0.4 fold < WT [3] [%]	% IC50 0.4 fold < WT [4] [%]	% IC50 0.4 fold < WT [5] [%]	% IC50 0.4 fold < WT [6] [%]	% IC50 0.4 fold < WT [7] [%]	FC (fold change in IC50) [8]	% IC50 0.4 fold < WT [9] [%]
CC(C)Nc1cccnc1N1CCN(C(=O)c2cc3cc(NS(C)(=O)=O)ccc3[nH]2)CC1 [DLV, delavirdine]	90.9	83.9	12.8	63.8	4.9	68.7	12.3	0.65+/−0.05	30.1
O=C1Nc2ccc(Cl)cc2[C@@](C#CC2CC2)(C(F)(F)F)O1 [EFV, efavirenz]	54.5	78.1	28.2	39.6	4.2	55.1	16.9	0.65+/−0.03	39.8
Cc1ccnc2c1NC(=O)c1cccnc1N2C1CC1 [NVP, nevirapine]	9.1	37.5	17.9	27.1	8.1	34.8	16.3	0.67+/−0.05	39.8
